Series [1] relates to cyclosporin treated Wistar rats. Nature of the series: Cyclosporine induced hyperglycemia in male Wistar rats. It counts as in vivo.
A further series relates to male ZDF rats. Nature of the series: 4-week study in male ZDF rats (compound 1).
Series [2] concerns cyclosporin treated Wistar rats. As to the kind of experiment: Islet histopathology and apoptosis in cyclosporine treated Wistar rats. It counts as in vivo. Conditions: cyclosporine 10 mg/kg PO, alone (Group-2) or with compound 1 30 mg/kg IP (Group-3).
Series [3] deals with tacrolimus treated Wistar rats. Nature of the series: Tacrolimus induced hyperglycemia in male Wistar rats. The format is in vivo. Conditions: for plasma glucose levels by day-14: tacrolimus 2 mg/kg PO daily, alone or with compound 1 at 30, 10 and 3 mg/kg IP.
Series [4] concerns BB19 cells, human BCECs (brain capillary endothelial cells). Nature of the series: Tacrolimus uptake assay. The format is cell-based. Conditions: Endothelial cell, 1 h, 0.1 μM test compound, 1 hour incubation, 3H-tacrolimus 34 nM, read-out: cell associated ^3H-tacrolimus uptake, % of control. As for the experimental part:
(§1) BB19 cells, human BCECs (brain capillary endothelial cells) immortalized with the E6E7 genes of human papilloma virus, were kindly provided from Jacques G. Prudhomme, Department of Biology, University of California, Riverside, U.S.A. The cells were cultured as monolayer culture in Amniomax™-C100 basal medium (catalog number 17001-157) with Amniomax™-C100 supplement (catalog number 12556-049) (Invitrogen, Basel, CH).
(§2) Cells were seeded onto culture surfaces precoated with 10 μg/cm^2 rat tail collagen type I (BD Bioscience, Allschwil, CH) at a density of approximately 50′000 cells/cm^2 and were cultured in an incubator at 37° C. with 5% CO2, 95% fresh air and saturated humidity. For uptake assays, cells were seeded on precoated 96-well plates. Assays were performed at confluency, after 6 days in culture.
(§3) BB19 cells were seeded 50′000 cells/cm^2 on 96-well plates (Falcon) and incubated under condition described above for 6 days. Before starting the assay, cells were washed 2 times with pre-warmed Dulbecco's MEM with Glutamax-I (catalog number 61965) (Invitrogen AG, Basel, CH), supplemented with 1% non essential amino acids, 1% sodium pyruvate, 50 μg/ml gentamycin (Invitrogen AG) (DMEM). Cells were then incubated for 15 min at 37° C. and 120 rpm in DMEM with or without the specified concentrations of test compounds under investigation. After this pre-incubation, cells were incubated in DMEM containing [propyl-3H]-dihydro-FK506 (3H-tacrolimus, 1 μCi/ml, 34 nM) and with or without the specified concentrations of test compounds for 1 hour at 37° C. and 120 rpm. During this 1-hour incubation period, influx and efflux of the substrate, ^3H-tacrolimus, occur. After the 1-hour incubation period, assay was terminated by placing the assay plate on ice and washing the cells twice with ice-cold DMEM. Determination of cell associated ^3H-tacrolimus was performed by addition of Insta Gel and scintillation liquid to trypsinized cells followed by analysis on a scintillation counter (Packard TriCarb2000, Can berra Packard S.A.). The results are expressed as: % of control=100×[^3H-tacrolimus conc. with test compound]/[^3H-tacrolimus conc. with vehicle]

Series [5] shares this test system. Nature of the series: Cyclosporin uptake assay. The format is cell-based. Conditions: 0.1 μM test compound; 1 hour incubation. As for the experimental part: as §1, §2, §3
The cyclosporin uptake assay was performed similarly as described above for tacrolimus uptake assay except that ^3H-cyclosporin was used in place of ^3H-tacrolimus.

In series [6] the test system is rats treated with tacrolimus. As to the kind of experiment: Renal pathology in rats co-administered with tacrolimus. Conditions: tacrolimus 0.5 mg/kg with vehicle or with Compound 2 at 11, 28 and 114 mg/kg, 25 days. The format is in vivo. As for the experimental part: Tissue is removed from the kidney of rats treated with tacrolimus (Prograf®) at 0.5 mg/kg and inert vehicle, and from rats treated with tacrolimus (Prograf®) at 0.5 mg/kg and quercetin-3′-O-methylphosphonate (Compound 2) at 11 mg/kg, 28 mg/kg, and at 114 mg/kg for 25 days. […] The tissue from rats treated with Compound 2 and tacrolimus show no vacuoles.

Where [7] appears, read: compound 1 30 mg/kg, rosiglitazone 6 mg/kg, compared to vehicle.

In the case of `O=c1c(OCP(=O)(O)O)c(-c2ccc(O)c(O)c2)oc2cc(O)cc(O)c12` [Compound 1, Quercetin-3-O-methylphosphonic acid], the “plasma glucose level during OGTT” value was “a level similar to that of vehicle treated animals” in series [1] (compound 1 30 mg/kg IP with cyclosporine 10 mg/kg PO, day-15); “a level similar to that of vehicle treated animals” in series [3] (compound 1 30 mg/kg and 10 mg/kg IP with tacrolimus 2 mg/kg PO, day-15). Also, the “plasma glucose levels by day-14” value in series [1] (cyclosporine 10 mg/kg PO daily, alone or with compound 1 at 30, 10 and 3 mg/kg IP) is given as “reduced cyclosporine induced hyperglycemia”; in series [1] (cyclosporine 10 mg/kg PO with compound 1 at 30 mg/kg IP), “completely prevented cyclosporine induced hyperglycemia”; in series [3] it was “reduced tacrolimus induced hyperglycemia”. Also, the plasma glucose levels result in the series with male ZDF rats (4 weeks daily i.p., compound 1 30 and 10 mg/kg) is on record as “maintains a lower plasma glucose level than vehicle treatment”. Also, in the series with male ZDF rats (setting [7]), the “glycated hemoglobin levels (% HbA1c) at termination” value is “significantly lower glycated hemoglobin levels”. Further, the pancreatic insulin levels entry in the series with male ZDF rats (setting [7]) was “significantly higher than that of the vehicle treated animals”. Also, the “plasma insulin levels, fed and fasting” value in the series on male ZDF rats (day-28 and day-29) was “significantly higher plasma insulin levels under both fed and fasting conditions”. Also, the liver triglyceride result in the series with male ZDF rats (four weeks of daily treatment) was “did not increase liver triglyceride”. Further, in the series with male ZDF rats (oral glucose 2 g/kg, day-29 after 12-hr fast, 15, 30, 60, 90 minutes), the “plasma glucose during OGTT” value is listed as “maintain lower plasma glucose level during OGTT”. Further, the “number of apoptotic islet cells” value in series [2] is on record as “reduced the number of apoptotic cells to that of vehicle treated animals”. Further, the “islet cell hyperplasia and degeneration/necrosis scores” value in series [2] (score 0-4) was “normalized the scores to that of vehicle treated animals”. Also, the “plasma insulin level during OGTT” value in series [3] (0, 15 and 30 minutes post glucose, compound 1 at all three dose levels with tacrolimus 2 mg/kg) is given as “higher than tacrolimus treated (group-2) or vehicle treated (Group-1) animals”.

As for `O=c1c(O)c(-c2ccccc2)oc2cc(OCP(=O)(O)O)cc(O)c12` [Compound 10, (3,5-Dihydroxy-4-oxo-2-phenyl-4H-chromen-7-yloxy)methylphosphonic acid], in series [4], the activity at 0.1 µM is 51%.

For `O=c1c(O)c(-c2ccc(OCP(=O)(O)O)cc2)oc2cc(O)cc(O)c12` [Compound 11, (4-(3,5,7-Trihydroxy-4-oxo-4H-chromen-2-yl)phenoxy)methylphosphonic acid], the “cell associated ^3H-cyclosporin uptake, % of control” value in series [5] is given as 78 % of control. In addition, in series [4], the activity at 0.1 µM amounted to 49%.

Regarding `O=c1c(O)c(-c2ccccc2)oc2cc(O)cc(OCP(=O)(O)O)c12` [Compound 16, (3,7-Dihydroxy-4-oxo-2-phenyl-4H-chromen-5-yloxy)methylphosphonic acid], the activity at 0.1 µM in series [4] amounted to 54%.

As for `O=c1c(O)c(-c2ccc(O)c(OCP(=O)(O)O)c2)oc2ccccc12` [Compound 18, (2-Hydroxy-5-(3-hydroxy-4-oxo-4H-chromen-2-yl)phenoxy)methylphosphonic acid], the “cell associated ^3H-cyclosporin uptake, % of control” value in series [5] is 77 % of control. The activity at 0.1 µM in series [4] is 66%.

In the case of `O=c1c(OCP(=O)(O)O)c(-c2ccc(O)c(O)c2)oc2ccccc12` [Compound 20, (2-(3,4-Dihydroxyphenyl)-4-oxo-4H-chromen-3-yloxy)methylphosphonic acid], the “cell associated ^3H-cyclosporin uptake, % of control” value in series [5] was 77 % of control. The activity at 0.1 µM in series [4] stood at 62%.

Regarding `C=CC[C@@H]1/C=C(\C)C[C@H](C)C[C@H](OC)[C@H]2O[C@@](O)(C(=O)C(=O)N3CCCC[C@H]3C(=O)O[C@H](/C(C)=C/[C@@H]3CC[C@@H](O)[C@H](OC)C3)[C@H](C)[C@@H](O)CC1=O)[C@H](C)C[C@@H]2OC` [Tacrolimus, tacrolimus, reference compound], the “plasma glucose levels by day-14” value in series [3] is on record as “induced hyperglycemia is clearly demonstrated”. In addition, in series [6], the “vacuolation of kidney tissue” value is “significant vacuolation”.
